# System: insulin resistant C57Bl/6 mice
# Experiment: Glucose tolerance test in high-fat diet fed (HFD) mice
# Type: in vivo, mouse
# Description: Male C57BL/6 mice (Taconic) were used at 9-12 weeks of age. Animals were on a 12 hour light cycle with non-restricted food and water. The HFD animals were fed an HFD (D12492, 60% fat content; Research Diets) for 2 weeks. All animal procedures were approved by the Malmo/Lund Committee for Animal Experiment Ethics, Lund, Sweden. HFD mice fasted overnight (12 hours) were injected intra peritoneal (i.p.) with apoA-I peptides as listed above ([…] in PBS pH 7.4 for the 54-mer fragment and 6-7 mg/kg for other fragments in PBS, pH 7.4; control animals received NaCl) and this was followed by collection of serum samples at the indicated times. Glucose (50 mg/mouse) was injected i.p. 3 hours after treatments, followed by collection of serum samples at the indicated times. Blood glucose levels were measured (OnetouchUltra2; Lifescan), and insulin levels were assayed in serum using ELISA (Mercodia).
# [1] = 7 mg/kg i.p., 120 minutes of the test
substance,measurement,setting,value
"190-243 polypeptide fragment: polypeptide fragment consisting of amino acids 190-243 of the full-length human apoA-I protein, C-terminal domain, 54-mer, recombinant (AEYHAKATEHLSTLSEKAKPALEDLRQGLLPVLESFKVSFLSALEEYTKKLNTQ; listed as Homo Sapiens)",increase of glucose-stimulated insulin secretion (AUC) versus control,[1],about 60%
same,reduction of total glucose (AUC) versus control,[1],about 40%
same,insulin secretion in glucose tolerance test (in words),"single i.p. injection 7 mg/kg, glucose load 3 hours later, FIG. 10c,d",significantly improved

# Reference: patent US20150353626A1, “APOLIPOPROTEIN A-I DERIVED PEPTIDES FOR TREATMENT OF HYPERGLYCAEMIA” (priority 2013, published 2015)
